# Residue numbers refer to the chain shown, from its start. Ends that are not written are not given here.
# Columns and labels:
# Test in all cases: BRET assay using TRUPATH biosensors, Gi activation of ADGRF1
# Format in all cases: cell-based
# ADGRF1 [1] = target: T1, ADGRF1 (Homo sapiens, UniProt Q5T601, F672A); conditions: ADGRF1 F672^3.44bA
# T1 construct: Flag (N); expressed in transfected cells; host or cells: HEK293F
# Method in brief: (§1)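 G protein activation by synthetic stalk peptides, read as GFP2-to-RLuc8 emission ratio from the fifth of five successive readings. Cells: HEK293F expressing receptor (WT or mutant) with GαsS-RLuc8 or Gαi1-RLuc8 plus Gβ3 and Gγ9-GFP2 (2:1:1:1). Pre-incubated 30 min at 37 °C; substrate coelenterazine 400a.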
# ADGRF1 [2] = target: T2, ADGRF1 (Homo sapiens, UniProt Q5T601, F690A); conditions: ADGRF1 F690^ICL2A
# T2 construct: Flag (N); expressed in transfected cells; host or cells: HEK293F
# T2 sequence (Q5T601 20-910 F690A): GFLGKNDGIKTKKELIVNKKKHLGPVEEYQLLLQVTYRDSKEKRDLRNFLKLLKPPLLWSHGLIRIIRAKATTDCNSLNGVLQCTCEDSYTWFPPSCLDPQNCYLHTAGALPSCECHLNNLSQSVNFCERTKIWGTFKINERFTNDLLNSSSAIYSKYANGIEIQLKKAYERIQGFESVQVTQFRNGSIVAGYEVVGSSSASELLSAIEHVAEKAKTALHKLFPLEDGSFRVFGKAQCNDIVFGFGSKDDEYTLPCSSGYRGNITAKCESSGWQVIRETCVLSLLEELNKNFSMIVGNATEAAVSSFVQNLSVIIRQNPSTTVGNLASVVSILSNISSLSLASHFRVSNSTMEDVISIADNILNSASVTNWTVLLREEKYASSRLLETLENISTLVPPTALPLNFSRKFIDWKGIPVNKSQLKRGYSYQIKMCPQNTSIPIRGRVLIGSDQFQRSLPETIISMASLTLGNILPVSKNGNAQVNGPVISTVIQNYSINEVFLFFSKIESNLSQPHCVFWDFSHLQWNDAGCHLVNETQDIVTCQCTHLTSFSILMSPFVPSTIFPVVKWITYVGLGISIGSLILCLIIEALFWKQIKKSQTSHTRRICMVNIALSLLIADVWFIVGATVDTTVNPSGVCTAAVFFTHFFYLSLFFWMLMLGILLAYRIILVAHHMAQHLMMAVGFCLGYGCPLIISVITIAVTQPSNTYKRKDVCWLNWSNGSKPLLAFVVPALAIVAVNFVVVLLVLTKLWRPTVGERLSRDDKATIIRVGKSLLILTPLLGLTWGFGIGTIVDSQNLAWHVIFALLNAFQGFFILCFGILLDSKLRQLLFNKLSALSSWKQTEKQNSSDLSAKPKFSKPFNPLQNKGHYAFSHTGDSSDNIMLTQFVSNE
# Method in brief: as §1
# ADGRF1 [3] = target: T3, ADGRF1 (Homo sapiens, UniProt Q5T601, L681E); conditions: ADGRF1 L681^3.53bE
# T3 construct: Flag (N); expressed in transfected cells; host or cells: HEK293F
# Method in brief: as §1
# ADGRF1 [4] = target: T4, ADGRF1 (Homo sapiens, UniProt Q5T601, L800A); conditions: ADGRF1 L800^6.49bA
# T4 construct: Flag (N); expressed in transfected cells; host or cells: HEK293F
# Method in brief: as §1
# ADGRF1 [5] = target: T5, ADGRF1 (Homo sapiens, UniProt Q5T601, M627A); conditions: ADGRF1 M627^2.50bA
# T5 construct: Flag (N); expressed in transfected cells; host or cells: HEK293F
# Method in brief: as §1
# ADGRF1 [6] = target: T6, ADGRF1 (Homo sapiens, UniProt Q5T601, P798A); conditions: ADGRF1 P798^6.47bA
# T6 construct: Flag (N); expressed in transfected cells; host or cells: HEK293F
# Method in brief: as §1
# ADGRF1 [7] = target: T7, ADGRF1 (Homo sapiens, UniProt Q5T601, V689A); conditions: ADGRF1 V689^ICL2A
# T7 construct: Flag (N); expressed in transfected cells; host or cells: HEK293F
# T7 sequence (Q5T601 20-910 V689A): T2 sequence (Q5T601 20-910 F690A) with V670A, A671F
# Method in brief: as §1
# [8] = n = 3, read-out: pEC50 (mean ± s.e.m.) (converted)
# T1 sequence (Q5T601 20-910 F672A): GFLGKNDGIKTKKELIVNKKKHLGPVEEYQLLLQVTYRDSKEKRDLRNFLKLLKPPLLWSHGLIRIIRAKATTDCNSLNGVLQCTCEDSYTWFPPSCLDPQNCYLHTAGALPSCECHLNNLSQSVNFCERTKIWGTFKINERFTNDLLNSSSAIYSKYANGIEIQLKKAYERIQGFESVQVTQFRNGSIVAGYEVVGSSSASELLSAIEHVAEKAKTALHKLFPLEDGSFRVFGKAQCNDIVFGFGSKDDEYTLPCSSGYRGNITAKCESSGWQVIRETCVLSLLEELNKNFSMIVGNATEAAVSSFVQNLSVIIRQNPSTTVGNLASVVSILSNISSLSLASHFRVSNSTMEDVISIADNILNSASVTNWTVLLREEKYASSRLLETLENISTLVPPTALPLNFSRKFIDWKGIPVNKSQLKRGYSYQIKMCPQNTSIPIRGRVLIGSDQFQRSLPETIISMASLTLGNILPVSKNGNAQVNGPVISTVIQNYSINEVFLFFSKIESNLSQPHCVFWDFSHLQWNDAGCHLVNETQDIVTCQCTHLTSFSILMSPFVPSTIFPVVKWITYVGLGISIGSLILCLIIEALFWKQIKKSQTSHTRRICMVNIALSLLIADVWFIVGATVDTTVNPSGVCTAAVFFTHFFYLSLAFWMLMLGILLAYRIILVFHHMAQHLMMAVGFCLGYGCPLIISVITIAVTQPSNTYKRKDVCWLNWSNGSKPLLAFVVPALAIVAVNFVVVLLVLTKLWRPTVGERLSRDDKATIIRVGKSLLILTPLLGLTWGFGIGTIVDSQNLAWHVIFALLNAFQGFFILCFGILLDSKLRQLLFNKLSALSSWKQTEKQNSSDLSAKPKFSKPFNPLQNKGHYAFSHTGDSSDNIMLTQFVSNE
# T5 sequence (Q5T601 20-910 M627A): as the sequence (Q5T601 20-910 F672A) above, with M608A, A653F counted along it
# T6 sequence (Q5T601 20-910 P798A): as the sequence (Q5T601 20-910 F672A) above, with A653F, P779A counted along it
# T4 sequence (Q5T601 20-910 L800A): as the sequence (Q5T601 20-910 F672A) above, with A653F, L781A counted along it
# T3 sequence (Q5T601 20-910 L681E): as the sequence (Q5T601 20-910 F672A) above, with A653F, L662E counted along it
sequence,measurement,setting,value
TSFSILMSPFVP [pF1],Emax (mean ± s.e.m.),ADGRF1 [1]; n = 3,72 ± 12 % of WT
same,EC50,ADGRF1 [1]; [8],0.437 µM
same,Emax (mean ± s.e.m.),ADGRF1 [2]; n = 3,94 ± 15 % of WT
same,EC50,ADGRF1 [2]; [8],0.0794 µM
same,Emax (mean ± s.e.m.),ADGRF1 [3]; n = 3,130 ± 12 % of WT
same,EC50,ADGRF1 [3]; [8],0.794 µM
same,Emax (mean ± s.e.m.),ADGRF1 [4]; n = 3,105 ± 8 % of WT
same,EC50,ADGRF1 [4]; [8],0.257 µM
same,Emax (mean ± s.e.m.),ADGRF1 [5]; n = 3,113 ± 8 % of WT
same,EC50,ADGRF1 [5]; [8],0.692 µM
same,Emax (mean ± s.e.m.),ADGRF1 [6]; n = 3,94 ± 17 % of WT
same,EC50,ADGRF1 [6]; [8],0.912 µM
same,Emax (mean ± s.e.m.),ADGRF1 [7]; n = 3,67 ± 7 % of WT
same,EC50,ADGRF1 [7]; [8],0.263 µM

# Source: publication PMC9046087, “Structural basis of tethered agonism of the adhesion GPCRs ADGRD1 and ADGRF1” (Nature, 2022)
